In this assay the target is MAGL (Homo sapiens (Human), UniProt Q99685). The experiment in a line: 2-AG assay: MAGL inhibitory activity by hydrolysis of 2-arachidonoylglycerol to arachidonic acid (mass spectrometry). It counts as biochemical. The note with it: measured in 2-AG assay (footnote [b]); 8 μM 2-arachidonoylglycerol. How it is done: Alternatively, compounds were profiled for MAGL inhibitory activity by determining the enzymatic activity by following the hydrolysis of the natural substrate 2-arachidonoylglycerol resulting in arachidonic acid, which can be followed by mass spectrometry. This assay is hereinafter abbreviated “2-AG assay”.
A C18 SPE cartridge (G9205A) was used in an acetonitrile/water liquid setup. […] The activity of the compounds was calculated based on the ratio of intensities [arachidonic acid/d8-arachidonic acid].

Structures are written as SMILES.

Sequence of MAGL (Q99685 whole entry, species assumed): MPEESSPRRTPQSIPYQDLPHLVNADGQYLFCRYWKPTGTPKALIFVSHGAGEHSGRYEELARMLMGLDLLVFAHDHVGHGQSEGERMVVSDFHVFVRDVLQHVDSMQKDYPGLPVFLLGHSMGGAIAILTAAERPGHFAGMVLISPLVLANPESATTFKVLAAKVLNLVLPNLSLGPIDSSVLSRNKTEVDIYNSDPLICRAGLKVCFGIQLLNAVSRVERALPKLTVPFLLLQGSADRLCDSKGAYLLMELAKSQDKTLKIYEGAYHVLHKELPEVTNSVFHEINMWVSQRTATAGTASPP

With `Cc1ccc(CCC2CN(C(=O)N3CC[C@@H]4OCC(=O)N[C@@H]4C3)C2)c(C(F)(F)F)c1` [Example 219], the IC50 is 2 nM.
As for `O=C1CO[C@H]2CCN(C(=O)N3CC(OCc4nc(-c5ccc(F)cc5)cs4)C3)C[C@H]2N1` [Example 244], the figure is 30 nM; as for `O=C1CO[C@H]2CCN(C(=O)N3CC(Oc4cccc(N5CC6(CCC6)C5)c4Cl)C3)C[C@H]2N1` [Example 271, (+)-(4aR,8aS)-6-[3-[3-(2-Azaspiro[3.3]heptan-2-yl)-2-chloro-phenoxy]azetidine-1-carbonyl]-4,4a,5,7,8,8a-hexahydropyrido[4,3-b][1,4]oxazin-3-one], 20 nM.
As for `O=C1CO[C@H]2CCN(C(=O)N3CCC(Cc4ccc(C(F)(F)F)cc4OCC(F)(F)F)CC3)C[C@H]2N1` [Example 202], the figure is 54 nM; as for `CC1(F)CN(c2cc(OC3CN(C(=O)N4CC[C@@H]5OCC(=O)N[C@@H]5C4)C3)ccc2C(F)(F)F)C1` [Example 268, (+)-(4aR,8aS)-6-[3-[3-(3-Fluoro-3-methyl-azetidin-1-yl)-4-(trifluoromethyl)phenoxy]azetidine-1-carbonyl]-4,4a,5,7,8,8a-hexahydropyrido[4,3-b][l,4]oxazin-3-one], 28 nM.
In turn, `O=C1CO[C@H]2CCN(C(=O)N3CC(Oc4ccc(C(F)(F)F)c(Cl)c4)C3)C[C@H]2N1` [Example 261] showed a half-inhibitory concentration (IC50) of 48 nM.
`O=C1CO[C@H]2CCN(C(=O)N3CC(Oc4cccc(C5CC5)c4Cl)C3)C[C@H]2N1` [Example 259] registered an IC50 of 15 nM.
As for `O=C1CO[C@H]2CCN(C(=O)N3CCC(Oc4ccc(Cl)c(N5CCOCC5)c4)CC3)C[C@H]2N1` [Example 121], the figure is 151 nM; as for `O=C1CO[C@H]2CCN(C(=O)N3CC(Oc4ccc(C(F)(F)F)cc4)C3)C[C@H]2N1` [Example 118], 132 nM.
As for `Cc1ccc(COC2CN(C(=O)N3CC[C@@H]4OCC(=O)N[C@@H]4C3)C2)c(C)c1` [Example 291], the figure is 28 nM.
As for `O=C1CO[C@H]2CCN(C(=O)N3CC(COc4ccc(C(F)(F)F)c(F)n4)C3)C[C@H]2N1` [Example 223, (4aR,8aS)-6-[3-[[6-Fluoro-5-(trifluoromethyl)-2-pyridyl]oxymethyl]azetidine-1-carbonyl]-4,4a,5,7,8,8a-hexahydropyrido[4,3-b][1,4]oxazin-3-one], the figure is 75 nM; as for `O=C1CO[C@H]2CCN(C(=O)N3CC(OCc4ccc(C(F)(F)F)cc4C(F)(F)F)C3)C[C@H]2N1` [Example 249], 5 nM; as for `O=C1CO[C@H]2CCN(C(=O)N3CCC(Oc4ccc(Cl)c(C5CC5)c4)CC3)C[C@H]2N1` [Example 120], 7 nM.
`O=C1CO[C@H]2CCN(C(=O)N3CC(OCc4cc(C(F)(F)F)c(C(F)(F)F)cn4)C3)C[C@H]2N1` [Example 234] displayed an IC50 of 2 nM.
As for `O=C1CO[C@H]2CCN(C(=O)N3CC(Oc4cc(Cl)cc(N5CC6(CCC6)C5)c4)C3)C[C@H]2N1` [Example 277, (+)-(4aR,8aS)-6-[3-[3-(2-Azaspiro[3.3]heptan-2-yl)-5-chloro-phenoxy]azetidine-1-carbonyl]-4,4a,5,7,8,8a-hexahydropyrido[4,3-b][1,4]oxazin-3-one], the figure is 455 nM.
As for `O=C1CO[C@H]2CCN(C(=O)N3CCC(Oc4ccc(Cl)c(-n5cncn5)c4)CC3)C[C@H]2N1` [Example 207], the figure is 50 nM.
In turn, `Cc1cc(OC(F)(F)F)ccc1COC1CN(C(=O)N2CC[C@@H]3OCC(=O)N[C@@H]3C2)C1` [Example 251] came in with an IC50 of 5 nM.
In the case of `CC(C)(C)OC1CN(c2cccc(OC3CN(C(=O)N4CC[C@@H]5OCC(=O)N[C@@H]5C4)C3)c2Cl)C1` [Example 274, (+)-(4aR,8aS)-6-(3-(3-(3-(tert-Butoxy)azetidin-1-yl)-2-chlorophenoxy)azetidine-1-carbonyl)hexahydro-2H-pyrido[4,3-b][1,4]oxazin-3(4H)-one], the IC50 was found to be 126 nM.
As for `CC(=O)c1cc(C(F)(F)F)ccc1CCC1CN(C(=O)N2CC[C@@H]3OCC(=O)N[C@@H]3C2)C1` [Example 220], the figure is 3 nM; as for `O=C1CO[C@H]2CCN(C(=O)N3CC(Oc4ccc(Cl)c(C(F)(F)F)c4)C3)C[C@H]2N1` [Example 204], 100 nM.
As for `N#Cc1cc(C(F)(F)F)ccc1OC1CCN(C(=O)N2CC[C@@H]3OCC(=O)N[C@@H]3C2)CC1` [Example 123], the figure is 82 nM; as for `O=C1CO[C@H]2CCN(C(=O)N3CCC(Oc4ccc(C(F)(F)F)c(-n5cccn5)c4)CC3)C[C@H]2N1` [Example 209], 74 nM.
On to `C[C@H]1[C@H](Oc2cc(C(F)(F)F)ccc2Br)CCN1C(=O)N1CC[C@@H]2OCC(=O)N[C@@H]2C1` [Example 248], for which the IC50 was 607 nM.
Compound `O=C1CO[C@H]2CCN(C(=O)N3CC(Oc4ccc(C(F)(F)F)cc4Cl)C3)C[C@H]2N1` [Example 213] had an IC50 of 98 nM.
As for `O=C1CO[C@H]2CCN(C(=O)N3CC(Oc4cccc(N5CC6(CCCO6)C5)c4Cl)C3)C[C@H]2N1` [Example 275, (+)-(4aR,8aS)-6-[3-[2-Chloro-3-(5-oxa-2-azaspiro[3.4]octan-2-yl)phenoxy]azetidine-1-carbonyl]-4,4a,5,7,8,8a-hexahydropyrido[4,3-b][1,4]oxazin-3-one], the figure is 32 nM; as for `O=C1CO[C@H]2CCN(C(=O)N3CCC(Oc4ccc(C(F)(F)F)c(N5CCOCC5)c4)CC3)C[C@H]2N1` [Example 206], 23 nM; as for `Cc1cc(C(F)(F)F)ccc1COC1CN(C(=O)N2CC[C@@H]3OCC(=O)N[C@@H]3C2)C1` [Example 292], 5 nM.
As for `O=C1CO[C@H]2CCN(C(=O)N3CC(OCc4cc(C(F)(F)F)cc(Oc5ccc(F)cc5)n4)C3)C[C@H]2N1` [Example 242], the figure is 12 nM.
As for `O=C1CO[C@H]2CCN(C(=O)N3CCC(Cc4c(F)cc(C(F)(F)F)cc4F)CC3)C[C@H]2N1` [Example 211], the figure is 17 nM.
As for `O=C1CO[C@H]2CCN(C(=O)N3CC(Oc4ccc(C(F)(F)F)c(N5CC6(CCC6)C5)c4)C3)C[C@H]2N1` [Example 265, (+)-(4aR,8aS)-6-[3-[3-(2-Azaspiro[3.3]heptan-2-yl)-4-(trifluoromethyl)phenoxy]azetidine-1-carbonyl]-4,4a,5,7,8,8a-hexahydropyrido[4,3-b][1,4]oxazin-3-one], the IC50 was 6 nM.
As for `O=C1CO[C@H]2CCN(C(=O)N3CC(Oc4cc(Cl)cc(N5CCCC5)c4)C3)C[C@H]2N1` [Example 278, (+)-(4aR,8aS)-6-[3-(3-Chloro-5-pyrrolidin-l-yl-phenoxy)azetidine-1-carbonyl]-4,4a,5,7,8,8a-hexahydropyrido[4,3-b][1,4]oxazin-3-one], the figure is 211 nM; as for `O=C1CO[C@H]2CCN(C(=O)N3CCC(Oc4cc(C(F)(F)F)ccc4F)C3)C[C@H]2N1` (stereo partly drawn) [Example 286], 128 nM.
As for `Cc1c(COC2CN(C(=O)N3CC[C@@H]4OCC(=O)N[C@@H]4C3)C2)cccc1C(F)(F)F` [Example 250], the figure is 8 nM.

For orientation: IC50 means the concentration needed to halve the response being measured.
